For 30 compounds, Ki and IC50 results are on record in US11702418B2, “SOS1 inhibitors” (priority 2019, dated 2023).

Structures can show the parent of a compound that is named as a salt. Where two headings read alike, the source gives them in different places.

For assay [1], the target named is recombinant human SOS1 polypeptide (amino acids 560-1049) (Homo sapiens (Human), UniProt Q07889). In words: biochemical. The class given is binding.
Another assay deals with pERK in MKN1 cells. Put plainly: cells. The assay is classed as cell-based.
Where [2] appears, read: read-out: Ki, Inhibition of Labeled Tracer Binding to SOS1.
Where [3] appears, read: HTRF displacement, Cy5 labelled tracer, Morrison equation for competitive binding, read-out: Ki, Inhibition of Labeled Tracer Binding to SOS1.
[4] abbreviates: Homo sapiens, MKN-1, pERK inhibition, In-Cell Western, MKN1 or H358 cells (Table 24 does not say which), 0.5-1 hour incubation, read-out: IC50.
Where [5] appears, read: Homo sapiens, MKN-1, pERK inhibition, In-Cell Western, MKN1 or H358 cells (Table 24 does not say which), 0.5-1 hour incubation.

Chain of recombinant human SOS1 polypeptide (amino acids 560-1049) (Q07889 560-1049): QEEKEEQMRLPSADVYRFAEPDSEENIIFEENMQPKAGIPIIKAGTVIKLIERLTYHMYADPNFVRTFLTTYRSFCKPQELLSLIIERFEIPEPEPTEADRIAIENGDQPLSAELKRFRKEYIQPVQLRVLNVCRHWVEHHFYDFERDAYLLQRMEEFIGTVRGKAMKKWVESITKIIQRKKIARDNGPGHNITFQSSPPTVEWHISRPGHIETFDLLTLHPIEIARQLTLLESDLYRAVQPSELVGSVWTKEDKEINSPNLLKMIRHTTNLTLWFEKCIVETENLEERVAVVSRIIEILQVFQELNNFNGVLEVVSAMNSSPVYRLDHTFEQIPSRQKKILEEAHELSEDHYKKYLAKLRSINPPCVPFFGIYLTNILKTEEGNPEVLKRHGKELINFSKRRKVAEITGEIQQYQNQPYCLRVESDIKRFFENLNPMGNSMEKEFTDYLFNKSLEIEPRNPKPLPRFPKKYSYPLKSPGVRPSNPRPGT

What is called Ki is a measure of affinity in units of concentration, obtained from inhibition or displacement. A word on the IC50: it is the concentration needed to halve the response being measured. Turning to `Cc1c(C(F)F)cccc1[C@@H](C)Nc1nnc(C)c2ccc(N3CCC(N4CCC4)CC3)cc12` [Example 10-44, (R)-7-(4-(azetidin-1-yl)piperidin-1-yl)-N-(1-(3-(difluoromethyl)-2-methylphenyl)ethyl)-4-methylphthalazin-1-amine hydrochloride salt], the Ki in assay [1] (setting [2]) was found to be 0.51 nM. The compound also showed an IC50 in the assay on pERK in MKN1 cells (Homo sapiens, MKN-1) of 53 nM.

`Cc1c([C@@H](C)Nc2nncc3ccc(N4CCn5cc(C(F)(F)F)nc5C4C)cc23)cccc1C(F)(F)F` (stereo partly drawn) [Example 1-47, 7-(8-methyl-2-(trifluoromethyl)-5,6-dihydroimidazo[1,2-a]pyrazin-7(8H)-yl)-N-((R)-1-(2-methyl-3-(trifluoromethyl)phenyl)ethyl)phthalazin-1-amine]: the Ki in assay [1] (setting [3]) stood at 2.08 nM. Moreover, in the assay with pERK in MKN1 cells (setting [4]), the IC50 worked out at 349 nM.

With `Cc1c([C@@H](C)Nc2nncc3ccc(OC4CCN(C)CC4)cc23)cccc1C(F)(F)F` [Example 2-6, (R)-N-(1-(2-methyl-3-(trifluoromethyl)phenyl)ethyl)-7-((1-methylpiperidin-4-yl)oxy)phthalazin-1-amine], the Ki in assay [1] (setting [3]) turned out to be 2.1 nM. The 50% inhibitory concentration (IC50) with pERK in MKN1 cells (setting [4]) is 83 nM.

Take `Cc1c([C@@H](C)Nc2nnc(C)c3ccc(N4CC[C@@H](N(C)C)C(F)(F)C4)cc23)cccc1C(F)(F)F` [Example 21-5, 7-((R)-4-(dimethylamino)-3,3-difluoropiperidin-1-yl)-4-methyl-N—((R)-1-(2-methyl-3-(trifluoromethyl)phenyl)ethyl)phthalazin-1-amine]: the Ki in assay [1] (setting [3]) came to 1.34 nM. Also, the 50% inhibitory concentration (IC50) in the assay with pERK in MKN1 cells (setting [4]) is 1110 nM.

`Cc1c([C@@H](C)Nc2nnc(C)c3ccc(N4C5CCC4CN(C)C5)cc23)cccc1C(F)(F)F` [Example 10-28, 4-methyl-N-((R)-1-(2-methyl-3-(trifluoromethyl)phenyl)ethyl)-7-(3-methyl-3,8-diazabicyclo[3.2.1]octan-8-yl)phthalazin-1-amine hydrochloride salt]: in assay [1] (setting [2]), the Ki is 0.45 nM. In the assay on pERK in MKN1 cells (Homo sapiens, MKN-1), this compound returned an IC50 of 161 nM.

Turning to `Cc1nnc(N[C@H](C)c2cc(N)cc(C(F)(F)F)n2)c2cc(N3CC4(CCN(C)C4=O)C3)ncc12` [Example 16-7, (R)-2-(1-((1-(4-amino-6-(trifluoromethyl)pyridin-2-yl)ethyl)amino)-4-methylpyrido[3,4-d]pyridazin-7-yl)-6-methyl-2,6-diazaspiro[3.4]octan-5-one], the Ki in assay [1] (setting [3]) worked out at 78.8 nM. Also, the IC50 with pERK in MKN1 cells (setting [4]) turned out to be 2900 nM.

For the compound `Cc1nnc(N[C@H](C)c2cc(F)cc(C(F)(F)F)c2)c2cc(N3CCOCC3)ncc12` [Example 6-14, (R)-N-(1-(3-fluoro-5-(trifluoromethyl)phenyl)ethyl)-4-methyl-7-morpholinopyrido[3,4-d]pyridazin-1-amine], the Ki in assay [1] (setting [3]) is 5.51 nM. Moreover, the IC50 with pERK in MKN1 cells (setting [4]) came out at 320 nM.

Take `Cc1c([C@@H](C)Nc2nnc(CN(C)C)c3ccc(N4CCOCC4)cc23)cccc1C(F)(F)F` [Example 14-1, (R)-4-((dimethylamino)methyl)-N-(1-(2-methyl-3-(trifluoromethyl)phenyl)ethyl)-7-morpholinophthalazin-1-amine]: in assay [1] (setting [2]), the Ki was found to be 8.97 nM. In the assay with pERK in MKN1 cells (setting [5]), this compound showed an IC50 of 68 nM.

As to `Cc1c(C#N)cccc1[C@@H](C)Nc1nnc(C)c2cnc(N3CC4CC(C3)O4)cc12` [Example 12-23], in assay [1] (setting [3]), the Ki was found to be 1.05 nM. For the same compound, the IC50 in the assay with pERK in MKN1 cells (setting [4]) came to 46 nM.

Turning to `Cc1c(C#N)cccc1[C@@H](C)Nc1nnc(C)c2ccc(O[C@H]3CCOC3)cc12` [Example 13-3], the Ki in assay [1] (setting [3]) turned out to be 12.2 nM. Moreover, the IC50 in the assay with pERK in MKN1 cells (setting [4]) worked out at 195 nM.

Consider `Cc1c(C#N)cccc1[C@@H](C)Nc1nnc(C)c2cnc(N3CCNCC3)cc12` [Example 12-25], for which, in assay [1] (setting [3]), the Ki was found to be 2.41 nM. For the same compound, the IC50 with pERK in MKN1 cells (setting [4]) is 35 nM.

As to `CNCc1nnc(N[C@H](C)c2cccc(C(F)(F)F)c2C)c2cc(N3C[C@H]4C[C@@H]3CO4)ncc12` [Example 14-5, 7-((1R,4R)-2-oxa-5-azabicyclo[2.2.1]heptan-5-yl)-N-((R)-1-(2-methyl-3-(trifluoromethyl)phenyl)ethyl)-4-((methylamino)methyl)pyrido[3,4-d]pyridazin-1-amine], the Ki in assay [1] (setting [3]) stood at 2.54 nM. The IC50 in the assay on pERK in MKN1 cells (setting [4]) was determined as 70 nM.

In the case of `Cc1c([C@@H](C)Nc2nnc(C)c3ccc(N4CC(C)(N(C)C)C4)cc23)cccc1C(F)(F)F` [Example 10-66, (R)-7-(3-(dimethylamino)-3-methylazetidin-1-yl)-4-methyl-N-(1-(2-methyl-3-(trifluoromethyl)phenyl)ethyl)phthalazin-1-amine], the Ki in assay [1] (setting [3]) amounted to 0.78 nM. Further, the IC50 with pERK in MKN1 cells (setting [4]) was determined as 108 nM.

Regarding `Cc1c([C@@H](C)Nc2nncc3ccc(N4CCC5CCN(C)C5C4)cc23)cccc1C(F)(F)F` (stereo partly drawn) [Example 1-33, N-((R)-1-(2-methyl-3-(trifluoromethyl)phenyl)ethyl)-7-(1-methyloctahydro-6H-pyrrolo[2,3-c]pyridin-6-yl)phthalazin-1-amine], in assay [1] (setting [3]), the Ki is 0.7 nM. Moreover, the IC50 in the assay with pERK in MKN1 cells (setting [4]) is 109 nM.

As to `Cc1c([C@@H](C)Nc2nnc(C)c3cnc(N4C[C@@H]5C[C@H]4CO5)cc23)cccc1C(F)(F)F` [Example 12-8], the Ki in assay [1] (setting [3]) came to 1.14 nM. Moreover, in the assay with pERK in MKN1 cells (setting [4]), the IC50 was determined as 38 nM.

For `Cc1c([C@@H](C)Nc2nnc(C)c3ccc(N4CCC5(CCNC5)CC4)cc23)cccc1C(F)(F)F` [Example 10-36, (R)-4-methyl-N-(1-(2-methyl-3-(trifluoromethyl)phenyl)ethyl)-7-(2,8-diazaspiro[4.5]decan-8-yl)phthalazin-1-amine hydrochloride salt], the Ki in assay [1] (setting [2]) came out at 0.23 nM. Moreover, the IC50 in the assay with pERK in MKN1 cells (Homo sapiens, MKN-1) turned out to be 79 nM.

Turning to `Cc1nnc(N[C@H](C)c2cc(N)cc(C(F)(F)F)n2)c2cc(N3CC4CC(C3)O4)ccc12` [Example 16-4, N-((R)-1-(4-amino-6-(trifluoromethyl)pyridin-2-yl)ethyl)-7-(6-oxa-3-azabicyclo[3.1.1]heptan-3-yl)-4-methylphthalazin-1-amine], in assay [1] (setting [3]), the Ki is 10.4 nM. In the assay on pERK in MKN1 cells (setting [4]), the IC50 is 371 nM.

For `Cc1nnc(N[C@H](C)c2ccc(F)cc2F)c2cc(N3CCN4CCOC[C@@H]4C3)ncc12` [Example 12-48], in assay [1] (setting [3]), the Ki was determined as 17 nM. Further, the IC50 in the assay on pERK in MKN1 cells (setting [4]) came out at 114 nM.

For `Cc1c([C@@H](C)Nc2nnc(C)c3ccc(N4CCN5C(=O)CC[C@H]5C4)cc23)cccc1C(F)(F)F` [Example 10-13, (S)-2-(1-methyl-4-(((R)-1-(2-methyl-3-(trifluoromethyl)phenyl)ethyl)amino)phthalazin-6-yl)hexahydropyrrolo[1,2-a]pyrazin-6(2H)-one], the Ki in assay [1] (setting [3]) worked out at 0.49 nM. Further, in the assay with pERK in MKN1 cells (setting [4]), the IC50 was 39 nM.

In the case of `Cc1c([C@@H](C)Nc2nnc(C)c3cnc(N4C[C@H]5C[C@@H]4CO5)cc23)cccc1C(F)(F)F` [Example 12-9], the Ki in assay [1] (setting [3]) was 0.47 nM. In addition, the half-inhibitory concentration (IC50) in the assay on pERK in MKN1 cells (setting [4]) was found to be 10 nM.

As for `Cc1c(C#N)cccc1[C@@H](C)Nc1nnc(C)c2cc(F)c(N3CCNCC3)cc12` [Example 18-4, (R)-3-(1-((6-fluoro-4-methyl-7-(piperazin-1-yl)phthalazin-1-yl)amino)ethyl)-2-methylbenzonitrile], the Ki in assay [1] (setting [3]) came out at 1.64 nM. For the same compound, in the assay with pERK in MKN1 cells (setting [4]), the IC50 came out at 41 nM.

On to `Cc1c([C@@H](C)Nc2nnc(C)c3ccc(OC4COC4)cc23)cccc1C(F)(F)F` [Example 13-2, (R)-4-methyl-N-(1-(2-methyl-3-(trifluoromethyl)phenyl)ethyl)-7-(oxetan-3-yloxy)phthalazin-1-amine], for which the Ki in assay [1] (setting [3]) is 191 nM. Besides, the IC50 with pERK in MKN1 cells (setting [4]) came to 2070 nM.

In the case of `Cc1c([C@@H](C)Nc2nnc(C)c3ccc(O[C@H]4CCOC4)cc23)cc(N)cc1C(F)(F)F` [Example 15-3, N-((R)-1-(5-amino-2-methyl-3-(trifluoromethyl)phenyl)ethyl)-4-methyl-7-(((S)-tetrahydrofuran-3-yl)oxy)phthalazin-1-amine], the Ki in assay [1] (setting [3]) turned out to be 0.94 nM. Besides, in the assay with pERK in MKN1 cells (setting [4]), the IC50 stood at 34 nM.

Turning to `Cc1nnc(N[C@H](C)c2cccc(C(F)F)c2F)c2cc(N3CC(C)(N(C)C)C3)ncc12` [Example 12-115], the Ki in assay [1] (setting [3]) was 1.66 nM. Moreover, in the assay on pERK in MKN1 cells (setting [4]), the IC50 is 19 nM.

In the case of `Cc1c([C@@H](C)Nc2nnc(C)c3ccc(N4CCNC5(CC5)C4)cc23)cccc1C(F)(F)F` [Example 10-34, (R)-4-methyl-N-(1-(2-methyl-3-(trifluoromethyl)phenyl)ethyl)-7-(4,7-diazaspiro[2.5]octan-7-yl)phthalazin-1-amine], the Ki in assay [1] (setting [3]) turned out to be 0.56 nM. For the same compound, the IC50 in the assay with pERK in MKN1 cells (setting [4]) was 136 nM.

In the case of `Cc1c(C#N)cccc1[C@@H](C)Nc1nnc(C)c2cnc(N3CCC(C)(N(C)C)CC3)cc12` [Example 12-46], the Ki in assay [1] (setting [3]) is 0.92 nM. Further, the IC50 in the assay on pERK in MKN1 cells (setting [4]) turned out to be 37 nM.

With `Cc1nnc(N[C@H](C)c2cc(N)cc(C(F)(F)F)n2)c2cc(N3CCOCC3)ccc12` [Example 16-1, (R)—N-(1-(4-amino-6-(trifluoromethyl)pyridin-2-yl)ethyl)-4-methyl-7-morpholinophthalazin-1-amine], in assay [1], the inhibition constant (Ki) is 14.4 nM. This compound displayed an IC50 with pERK in MKN1 cells (setting [5]) of 245 nM.

For `Cc1c([C@@H](C)Nc2nnc(C)c3ccc(N4CCC5(CCCN5)CC4)cc23)cccc1C(F)(F)F` [Example 10-35, (R)-4-methyl-N-(1-(2-methyl-3-(trifluoromethyl)phenyl)ethyl)-7-(1,8-diazaspiro[4.5]decan-8-yl)phthalazin-1-amine], in assay [1] (setting [3]), the Ki was found to be 0.31 nM. In the assay with pERK in MKN1 cells (pERK inhibition, In-Cell Western, MKN1 or H358 cells (Table 24 does not say which), 0.5-1 hour incubation, read-out: IC50), the IC50 worked out at 1000 nM.

For `Cc1c([C@@H](C)Nc2nnc(C)c3ccc(OC[C@@H]4CCCN4)cc23)cccc1C(F)(F)F` [Example 7-6, 4-methyl-N-((R)-1-(2-methyl-3-(trifluoromethyl)phenyl)ethyl)-7-(((S)-pyrrolidin-2-yl)methoxy)phthalazin-1-amine], the inhibitory constant (Ki) in assay [1] (setting [3]) amounted to 1.41 nM. Also, the IC50 in the assay on pERK in MKN1 cells (setting [4]) amounted to 110 nM.

With `C[C@@H](Nc1nncc2ccc(N3CCOCC3)cc12)c1cc(-c2ccccc2CN(C)C)cs1` [Example 2-1, (R)—N-(1-(4-(2-((dimethylamino)methyl)phenyl)thiophen-2-yl)ethyl)-7-morpholinophthalazin-1-amine], the IC50 with pERK in MKN1 cells (setting [4]) came to 308 nM.
